Data from patent US20250332185A1, “Use of a New Therapeutic Combination to Treat Chronic Venous Insufficiency” (KÉRI PHARMA HUNGARY KFT., priority 2021, published 2025).
Read-outs that look alike come from different tables or passages of the source.

Columns and labels:
[1] = tested on: patients with venous ulcers; conditions: cited from earlier work
[2] = tested on: fasting homocysteine levels in healthy young women; conditions: healthy young women with normal homocysteine; folic acid 400 micrograms/day, vitamin B6 2 mg/day; daily for four weeks; cited from earlier work
[3] = tested on: patients with venous circulatory disorders, CEAP stage 2 and CEAP stage 3; assay: Observation test 1: CIVIQ-20 quality-of-life score after 12 weeks of therapy; assay type: in vivo, human; conditions: for CIVIQ change (score): Visit 1 score - Visit 2 score (negative = improvement), 12 weeks; for CIVIQ (score), Visit 2: after 12 weeks of therapy; for CIVIQ (score), Visit 2 / CIVIQ (score), Visit 1: mean ± SD; for CIVIQ (score), Visit 1: baseline before treatment
Experimental: The study analysed data from a total of 90 people retrospectively.
The analysis was based on consecutive patient data from outpatients who met the inclusion criteria. All patients had venous circulatory disorders, with severity of disease corresponding to CEAP stage 2 and CEAP stage 3. The male:female ratio in the population analysed was 1:2
In total, data from four different patient groups were examined: • Group 1: patients taking 1000 mg of diosmin daily (n=45)· • 30 subjects had homocysteine levels below the risk threshold (<12.5 μmol/L normal homocysteinemia group)· • 15 subjects had homocysteine levels above the risk threshold (>12.5 μmol/L hyperhomocysteinemia group) • Group 2: patients taking a daily combination of 1000 mg diosmin+6 mg folic acid+20 mg vitamin B6 (diosmin plus) (45 patients)· • 30 subjects had homocysteine levels below the risk threshold (<12.5 μmol/L normal homocysteinemia group)· • 15 subjects had homocysteine levels above the risk threshold (>12.5 μmol/L hyperhomocysteinemia group)
The observation period was 12 weeks, during which time patients took the prescribed medication continuously. Before starting the medication treatment, a physical examination (to determine the CEAP stage of chronic venous insufficiency) and homocysteine level determination were performed and a CIVIQ-20 questionnaire was filled out. At the end of the 12-week follow-up period, the tests were repeated. For continuous variables, normality testing was performed. Variables with a normal distribution (age, CIVIQ score at visits 1 and 2) were characterised by the mean+SD, while variables with a non-normal distribution (homocysteine level at visits 1 and 2) were characterised by the median (25; 75 percentile). Differences in the values of variables with normal distribution by subgroup was tested by t test, and difference in the values of variables with non-normal distribution by subgroup was tested by chi-squared test.
(§1) The factors determining the increase in CIVIQ score were analysed using simple and complex linear regression. In the composite model, age and gender were included as significant regressors. […] The fit of the final composite linear model was characterised using the Ramsey RESET test and the Breusch-Pagan/Cook-Weisberg test. Model fit is indicated by a value of p>0.05. The composite model was also stratified according to baseline homocysteine level (normal vs. low), to investigate the interaction between baseline homocysteine level and the therapy used.

homocysteine level [4] = assay: Observation test 2: homocysteine level determination; assay type: in vivo, human; conditions: median (25; 75 percentile); for homocysteine, Visit 2: after 12 weeks of therapy; for homocysteine, Visit 1: baseline before treatment, CEAP 6
Experimental: Data from a total of 60 people were analysed retrospectively. Patients attending outpatient care consecutively who met the inclusion criteria were included in the retrospective analysis. Patients all had venous circulatory disorders with a severity of disease corresponding to CEAP stage 6. The male:female ratio in the analysed population was 1:2. The data of a total of four different patient groups were analysed as follows. • Group 1: patients taking 1000 mg of diosmin daily (n=30) • 15 patients had homocysteine levels below the risk threshold (<12.5 μmol/L, normal homocysteinemia group). • 15 patients had homocysteine levels above the risk threshold (>12.5 μmol/L hyperhomocysteinemia group) • Group 2: patients taking a daily combination of 1000 mg diosmin+3 mg folic acid+20 mg vitamin B6 (diosmin plus) (30 patients) • 15 patients had homocysteine levels below the risk threshold (<12.5 μmol/L normal homocysteinemia group). • 15 patients had homocysteine levels above the risk threshold (>12.5 μmol/L hyperhomocysteinemia group) • Group 3: patients taking a combination of 3 mg folic acid+20 mg vitamin B6 (diosmin plus) daily (30 patients) • 15 patients had homocysteine levels below the risk threshold (<12.5 μmol/L normal homocysteinemia group). • 15 patients had homocysteine levels above the risk threshold (>12.5 μmol/L hyperhomocysteinemia group) The observation period was 12 weeks, during which time patients took the prescribed medication continuously. Before starting the medication treatment, a physical examination (to determine the CEAP stage of chronic venous insufficiency) and homocysteine level determination were performed. The area of the leg ulcer developed based on the venous circulatory disorder was also determined. At the end of the 12-week observation period, the tests were repeated. For continuous variables, normality tests were performed. Variables with a normal distribution (age) were characterised by the mean+SD, variables with a non-normal distribution (homocysteine level at visits 1 and 2, leg ulcer area at visits 1 and 2) were characterised by the median (25; 75 percentile). For comparisons between two subgroups, the difference in the values of variables with normal distribution by subgroup was tested by t test, and the difference in the values of variables with non-normal distribution by subgroup was tested by chi-squared test.

homocysteine level [5] = assay: Observation test 1: homocysteine level determination; assay type: in vivo, human; conditions: median (25; 75 percentile); for homocysteine, Visit 2: after 12 weeks of therapy; for homocysteine, Visit 1: baseline before treatment, CEAP 2-3
Experimental: The analysis was based on consecutive patient data from outpatients who met the inclusion criteria. All patients had venous circulatory disorders, with severity of disease corresponding to CEAP stage 2 and CEAP stage 3. The male:female ratio in the population analysed was 1:2 In total, data from four different patient groups were examined: • Group 1: patients taking 1000 mg of diosmin daily (n=45)· • 30 subjects had homocysteine levels below the risk threshold (<12.5 μmol/L normal homocysteinemia group)· • 15 subjects had homocysteine levels above the risk threshold (>12.5 μmol/L hyperhomocysteinemia group) • Group 2: patients taking a daily combination of 1000 mg diosmin+6 mg folic acid+20 mg vitamin B6 (diosmin plus) (45 patients)· • 30 subjects had homocysteine levels below the risk threshold (<12.5 μmol/L normal homocysteinemia group)· • 15 subjects had homocysteine levels above the risk threshold (>12.5 μmol/L hyperhomocysteinemia group) The observation period was 12 weeks, during which time patients took the prescribed medication continuously. Before starting the medication treatment, a physical examination (to determine the CEAP stage of chronic venous insufficiency) and homocysteine level determination were performed and a CIVIQ-20 questionnaire was filled out. At the end of the 12-week follow-up period, the tests were repeated. For continuous variables, normality testing was performed. Variables with a normal distribution (age, CIVIQ score at visits 1 and 2) were characterised by the mean+SD, while variables with a non-normal distribution (homocysteine level at visits 1 and 2) were characterised by the median (25; 75 percentile). Differences in the values of variables with normal distribution by subgroup was tested by t test, and difference in the values of variables with non-normal distribution by subgroup was tested by chi-squared test.

[6] = tested on: patients with venous circulatory disorders, CEAP stage 6 (leg ulcer); assay: Observation test 2: area of leg ulcer after 12 weeks of therapy; assay type: in vivo, human; conditions: median (25; 75 percentile); for change in ulcer size: 1st visit - 2nd visit (positive = reduction), 12 weeks; for ulcer size, Visit 2: after 12 weeks of therapy; for ulcer size, Visit 1: baseline before treatment
Experimental: Data from a total of 60 people were analysed retrospectively. Patients attending outpatient care consecutively who met the inclusion criteria were included in the retrospective analysis. Patients all had venous circulatory disorders with a severity of disease corresponding to CEAP stage 6. The male:female ratio in the analysed population was 1:2. The data of a total of four different patient groups were analysed as follows. • Group 1: patients taking 1000 mg of diosmin daily (n=30) • 15 patients had homocysteine levels below the risk threshold (<12.5 μmol/L, normal homocysteinemia group). • 15 patients had homocysteine levels above the risk threshold (>12.5 μmol/L hyperhomocysteinemia group) • Group 2: patients taking a daily combination of 1000 mg diosmin+3 mg folic acid+20 mg vitamin B6 (diosmin plus) (30 patients) • 15 patients had homocysteine levels below the risk threshold (<12.5 μmol/L normal homocysteinemia group). • 15 patients had homocysteine levels above the risk threshold (>12.5 μmol/L hyperhomocysteinemia group) • Group 3: patients taking a combination of 3 mg folic acid+20 mg vitamin B6 (diosmin plus) daily (30 patients) • 15 patients had homocysteine levels below the risk threshold (<12.5 μmol/L normal homocysteinemia group). • 15 patients had homocysteine levels above the risk threshold (>12.5 μmol/L hyperhomocysteinemia group)
The observation period was 12 weeks, during which time patients took the prescribed medication continuously. Before starting the medication treatment, a physical examination (to determine the CEAP stage of chronic venous insufficiency) and homocysteine level determination were performed. The area of the leg ulcer developed based on the venous circulatory disorder was also determined.
At the end of the 12-week observation period, the tests were repeated. For continuous variables, normality tests were performed. Variables with a normal distribution (age) were characterised by the mean+SD, variables with a non-normal distribution (homocysteine level at visits 1 and 2, leg ulcer area at visits 1 and 2) were characterised by the median (25; 75 percentile). For comparisons between two subgroups, the difference in the values of variables with normal distribution by subgroup was tested by t test, and the difference in the values of variables with non-normal distribution by subgroup was tested by chi-squared test.
as §1, with “effectiveness of the therapy was characterised by the change in the area of the leg ulcer. Factors” for “factors”, “change” for “increase”, “ulcer size” for “CIVIQ score”, “were” for “were included as”

[7] = tested on: systolic blood pressure in untreated hypertensive patients; conditions: interval in brackets, cited from earlier work
[8] = tested on: homocysteine levels in untreated hypertensive patients; conditions: cited from earlier work; for homocysteine levels increased by: end of 4.5-year treatment
[9] = hyperhomocysteine group (>12.5 μmol/L)
[10] = normal homocysteine group (<12.5 μmol/L)

Nc1nc2ncc(CNc3ccc(C(=O)N[C@@H](CCC(=O)O)C(=O)O)cc3)nc2c(=O)[nH]1 [folic acid]
ulcer healing ([1]; chronic venous ulcer disease with hyperhomocysteinemia): accelerated ulcer healing | cure rate ([1]; group A: hyperhomocysteinemia, folic acid 1.2 mg/day for 12 months plus basic treatment, group B basic treatment only 63·33%, P<0.05): 78.75% | reduction of homocysteine levels [2]: 11.5%

COc1ccc(-c2cc(=O)c3c(O)cc(O[C@@H]4O[C@H](CO[C@@H]5O[C@@H](C)[C@H](O)[C@@H](O)[C@H]5O)[C@@H](O)[C@H](O)[C@H]4O)cc3o2)cc1O [diosmin]
CIVIQ change (score) ([3]; hyperhomocysteine group): −14.56 ± 15.86 score | CIVIQ change (score) ([3]; normal homocysteine group): −12.09 ± 1.23 score | CIVIQ (score), Visit 2 ([3]; hyperhomocysteine group): 79.71 ± 10.81 score | CIVIQ (score), Visit 2 ([3]; normal homocysteine group): 78.44 ± 8.75 score | CIVIQ (score), Visit 1 ([3]; hyperhomocysteine group): 65.14 ± 8.45 score | CIVIQ (score), Visit 1 ([3]; normal homocysteine group): 66.09 ± 9.91 score | homocysteine, Visit 2 (homocysteine level [4]; hyperhomocysteine group): 19.13 (18.75; 19.42) μmol/L | homocysteine, Visit 2 (homocysteine level [4]; normal homocysteine group): 10.89 (10.21; 11.17) μmol/L | homocysteine, Visit 1 (homocysteine level [4]; [9]): 20.73 (20.16; 21.21) μmol/L | homocysteine, Visit 1 (homocysteine level [4]; [10]): 11.82 (11.59; 12.24) μmol/L | homocysteine, Visit 2 (homocysteine level [5]; hyperhomocysteine group): 11.69 (11.52; 11.91) μmol/L | homocysteine, Visit 2 (homocysteine level [5]; normal homocysteine group): 7.39 (7.65; 7.80) μmol/L | homocysteine, Visit 1 (homocysteine level [5]; [9]): 14.74 (13.24; 15.79) μmol/L | homocysteine, Visit 1 (homocysteine level [5]; [10]): 8.00 (7.23; 8.83) μmol/L | change in ulcer size ([6]; hyperhomocysteine group): 2.61 (2.01; 3.29) cm^2 | change in ulcer size ([6]; normal homocysteine group): 1.11 (0.64; 2.26) cm^2 | ulcer size, Visit 2 ([6]; hyperhomocysteine group): 10.56 (10.28; 10.91) cm^2 | ulcer size, Visit 2 ([6]; normal homocysteine group): 7.09 (6.12; 7.67) cm^2 | ulcer size, Visit 1 ([6]; hyperhomocysteine group): 13.62 (12.44; 13.85) cm^2 | ulcer size, Visit 1 ([6]; normal homocysteine group): 8.11 (7.07; 8.73) cm^2

CCOC(=O)[C@H](CCc1ccccc1)N[C@@H](C)C(=O)N1CCC[C@H]1C(=O)O [enalapril]
Reduction in systolic blood pressure ([7]; baseline homocysteine 10-<15 versus reference category <10): −0.77 (−1.53; −0.01) mm Hg | Reduction in systolic blood pressure ([7]; baseline homocysteine ≥15 versus reference category <10): −1.70 (−2.68; −0.72) mm Hg | homocysteine levels increased by ([8]; baseline homocysteine <10 μmol/L): 1.7 µmol/L | homocysteine levels increased by ([8]; baseline homocysteine between 10 and 15 μmol/L): 1.1 µmol/L | homocysteine levels decreased by ([8]; baseline homocysteine ≥15 μmol/L, median 4.5 years, 10 mg enalapril, 0.8 mg folic acid daily): 2.4 µmol/L

Cc1ncc(CO)c(CO)c1O.Cl [Vitamin B6, vitamin B6]
reduction of homocysteine levels [2]: no effect
